In patent US12595251B2, “Amidines and amidine analogs for the treatment of bacterial infections and potentiation antibiotics” (GEORGIA STATE UNIVERSITY RESEARCH FOUNDATION, INC., priority 2018, dated 2026):
Converted amounts (≈) assume the structure as drawn. Structures can show the parent of a compound that is named as a salt.

What follows are molecules tested on E. coli (assay: Sensitization of E. coli to erythromycin (sensitization fold from IC90, OD600, 20 h)). Details: erythromycin; compound at 10 μM.
Type: cell-based, Escherichia coli
Procedure: E. coli bacteria were cultured in Miller's broth at 37° C. overnight prior to treatment. B. subtilis bacteria were cultured in nutrient broth at 37° C. overnight prior to treatment. […] Bacterial density was measured based on OD600.
`CCCCc1cc(OCc2ccc(C(=N)N)cc2)cc(OCc2ccc(C(=N)N)cc2)c1` [drawing 749] was tested, and the “SF (E. coli) at 10 μM” value was 10 μM > 32 fold.
With `N=C(N)c1ccc(COc2cc(OCc3ccc(C(=N)N)cc3)cc(C(F)(F)F)c2)cc1` [drawing 750] the “SF (E. coli) at 10 μM” value was 10 μM > 32 fold.

Same assay, conditions: erythromycin; compound at 12.5 μM; NA=no activity
With `CC(C)(C)c1cc(COc2ccc(C(=N)N)cc2)cc(COc2ccc(C(=N)N)cc2)c1` [drawing 732] the “SF (E. coli) at 12.5 μM” value was 4-fold at 12.5 μM.

Same assay, conditions: erythromycin; compound at 20 μM
With `COc1cc(OCc2ccc(C(=N)N)cc2)cc(OCc2ccc(C(=N)N)cc2)c1` the “SF (E. coli) at 20 μM” value was “No effect at 20 μM”.
For `CO/N=C(\N)c1ccc(OCc2cc(C)cc(COc3ccc(/C(N)=N\OC)cc3)c2)cc1` [drawing 748], the “SF (E. coli) at 20 μM” value was 4-fold at 20 μM.

Same assay, conditions: erythromycin; compound at 25 μM; NA=no activity
For `Cc1cc(COc2ccc(C(=N)N)cc2F)cc(COc2ccc(C(=N)N)cc2F)c1` [drawing 747], the “SF (E. coli) at 25 μM” value was 64-fold at 25 μM.

Same assay, conditions: general statement on amidine substitution or ring restraint
In the case of `Cc1cc(COc2ccc(C(=N)NC(C)C)cc2)cc(COc2ccc(C(=N)NC(C)C)cc2)c1` [Compound C-3, 1,3-Bis {(4-isopropylamidino)-phenoxymethyl}-5-methylbenzene dihydrochloride], the “Ability to sensitize Gram-negative bacteria (while preserving ability to sensitize some Gram-positive bacteria)” value is reported as “greatly decrease, or even abolish”.

Same assay, conditions: sensitization fold = IC90 of erythromycin without/with compound; compound concentration not given; NA=no activity, T=toxic
For `N=C(N)c1ccc2nc(-c3ccc(OCC(F)(F)C(F)(F)COc4ccc(-c5nc6ccc(C(=N)N)cc6[nH]5)cc4)cc3)[nH]c2c1` [drawing 706], the “SF (E. coli)” value was <2.
With `N=C(N)c1ccc(OCc2ccc(-c3ccc(C(=N)N)cc3)cc2)cc1` [drawing 711] the “SF (E. coli)” value was <2.
In the case of `N=C(N)c1ccc(OCc2cccc(COc3ccc(C(=N)N)cc3)c2)cc1` [drawing 712], the “SF (E. coli)” value is reported as <2.
`N=C(N)c1ccc(OCc2cccc(COc3ccc(C(=N)N)cc3F)c2F)c(F)c1` [drawing 713] was tested, and the “SF (E. coli)” value was 6.
`Cc1cc(-c2nc3cc(C(=N)N)ccc3n2C)sc1-c1ccc(OCCCCOc2ccc(C(=N)N)cc2)cc1` [drawing 715] was tested, and the “SF (E. coli)” value was <2.
In the case of `N=C(N)c1ccc(OCc2cccc(COc3ccc(C(=N)N)cc3)c2F)cc1` [drawing 718], the “SF (E. coli)” value is reported as <2.

Each molecule was assayed on M. smegmatis (assay: Antibacterial activity against M. smegmatis (MIC, OD600, 48 h)). Details: Mycolicibacterium smegmatis, MIC = 90% growth inhibition, 7H9 media, NA=no activity.
Type: cell-based, Mycobacterium smegmatis
Molecule `N=C(N)c1ccc2nc(-c3ccc(OCC(F)(F)C(F)(F)COc4ccc(-c5nc6ccc(C(=N)N)cc6[nH]5)cc4)cc3)[nH]c2c1` [drawing 801] has an MIC of 6 µM (≈ 3.78 µg/mL).
In the case of `N=C(N)c1ccc(OCc2ccc(-c3ccc(C(=N)N)cc3)cc2)cc1` [drawing 804], the MIC is reported as 6 µM (≈ 2.07 µg/mL).
Molecule `N=C(N)c1ccc(OCc2cccc(COc3ccc(C(=N)N)cc3F)c2F)c(F)c1` [drawing 805] has an MIC of 12 µM (≈ 5.14 µg/mL).
`N=C(N)c1ccc(OCc2cccc(COc3ccc(C(=N)N)cc3)c2F)cc1` [drawing 806] showed an MIC of 12 µM (≈ 4.71 µg/mL).
`Cc1cc(COc2ccc(C(=N)N)cc2)cc(COc2ccc(C(=N)N)cc2)c1` [drawing 809] showed an MIC of 12 µM (≈ 4.66 µg/mL).
For `c1cc(COc2ccc(C3=NCCN3)cc2)cc(COc2ccc(C3=NCCN3)cc2)c1` [drawing 810], the MIC was 12 µM (≈ 5.12 µg/mL).
With `Fc1c(COc2ccc(C3=NCCN3)cc2)cccc1COc1ccc(C2=NCCN2)cc1` [drawing 811] the MIC was 25 µM (≈ 11.1 µg/mL).
In the case of `COc1cc(C2=NCCN2)ccc1OCc1cccc(COc2ccc(C3=NCCN3)cc2OC)c1F` [drawing 813], the MIC is reported as 25 µM (≈ 12.6 µg/mL).
For `N=C(N)c1ccc(OCc2ccc(COc3ccc(C(=N)N)cc3)cc2)cc1` [drawing 814], the MIC was 3 µM (≈ 1.12 µg/mL).
Work on `Cc1cc(COc2ccc(C(=N)NC(C)C)cc2)cc(COc2ccc(C(=N)NC(C)C)cc2)c1` [drawing 815] yielded an MIC of 3 µM (≈ 1.42 µg/mL).
`COc1cc(C(=N)N)ccc1OCc1cc(C)cc(COc2ccc(C(=N)N)cc2OC)c1` [drawing 816] showed an MIC of 25 µM (≈ 11.2 µg/mL).
`COc1cc(C(=N)N)ccc1OCc1cccc(COc2ccc(C(=N)N)cc2OC)c1F` [drawing 817] showed an MIC of 6 µM (≈ 2.71 µg/mL).
With `CC(C)(C)c1cc(COc2ccc(C(=N)N)cc2)cc(COc2ccc(C(=N)N)cc2)c1` [drawing 818] the MIC was 6 µM (≈ 2.58 µg/mL).
`Cn1c(-c2ccc(-c3ccc(C(=N)N)cc3)s2)nc2cc(-c3ccc(C(=N)N)cc3)ccc21` [drawing 819] showed an MIC of 6 µM (≈ 2.7 µg/mL).
For `N=C(N)c1ccc(OCc2cccc(COc3ccc(C(=N)N)cc3)c2)cc1` [drawing 821], the MIC was 12 µM (≈ 4.49 µg/mL).

These molecules were tested on wild-type E. coli (assay: Sensitization of wild-type E. coli toward antibiotics (MIC of antibiotic with/without sensitizer)). Details: not given.
Type: cell-based, Escherichia coli
Procedure: Bacteria were cultured with the antibiotic at various concentrations in the presence or absence of bacterial sensitizer for 24 hours at 37° C. Bacterial growth density was determined by measuring OD600 (absorbance measured at a wavelength of 600 nm). […]
The formula for calculating FIC is shown below: […]
`N=C(N)c1ccc(OCCCCCOc2ccc(C(=N)N)cc2)cc1` [Pentamidine, pentamidine] was tested, and the “Minimal concentration achieving 10-fold sensitization of E. coli toward erythromycin” value was 40 μg/ml.

The molecules below were run on H9c2 cells (assay: Cytotoxicity in H9c2 cells (CCK-8, 24 h)). Details: not given.
Type: cell-based
Procedure: H9c2 (ATCC®R-1446™) cells Were used in the studies. The H9c2 cells were maintained in DMEM (Dulbeccoa's Modified Eagle's Medium) supplemented with 10% fetal bovine serum (Mid Sci; S01520HI) and 1% penicillin-streptomycin (Sigma-Aldrich; P4333) at 37° C. with 5% CO2. The H9c2 cells were seeded in 96-well plate one day before the experiment. Different concentrations of di-amidine compounds were added into the H9c2 cells. The cells were then incubated with the compounds for 24 h at 37° C. with 5% CO2. The cell viability was tested by the CCK-8. Specifically, after 24 h incubation, 10 μL CCK-8 was added to each well. After 3 h incubation at 37° C., the absorbance at 450 nm was recorded by a plate reader. The cytoxicity in HEK293 and 3T3 cells was measured using the same procedure. Data is shown in Table 5 (NT=not toxic; --=not tested).
For `N=C(N)c1ccc(OCc2cccc(COc3ccc(C(N)=O)cc3)n2)cc1`, the “H9c2 CC^50” value was 50 µM.
In the case of `Fc1cc(C2=NCCN2)ccc1OCc1cccc(COc2ccc(C3=NCCN3)cc2F)c1F`, the “H9c2 CC^50” value is reported as 50 µM.
With `Cc1cc(COc2ccc(NC(=N)N)cc2)cc(COc2ccc(NC(=N)N)cc2)c1` the “H9c2 CC^50” value was 100 µM.
In the case of `N=C(N)c1ccc2nc(-c3ccc(OCC(F)(F)C(F)(F)COc4ccc(-c5nc6ccc(C(=N)N)cc6[nH]5)cc4)cc3)[nH]c2c1` [drawing 847], the “H9c2 CC^50” value is reported as 50 µM.
With `Cn1c(-c2ccc(-c3ccc(C(=N)N)cc3)s2)nc2cc(-c3ccc(C(=N)N)cc3)ccc21` [drawing 848] the “H9c2 CC^50” value was 50 µM.
In the case of `N=C(N)c1ccc2[nH]c(-c3ccc(-c4ccc(-c5ccc(-c6ccc(-c7nc8cc(C(=N)N)ccc8[nH]7)cc6)s5)s4)cc3)nc2c1` [drawing 849], the “H9c2 CC^50” value is reported as 50 µM.
`Cn1c(CCCCc2nc3ccc(C(=N)N)cc3n2C)nc2ccc(C(=N)N)cc21` [drawing 850] was tested, and the “H9c2 CC^50” value was 50 µM.
In the case of `N=C(N)c1ccc(Oc2ccc(C(=N)N)cc2)cc1` [drawing 851], the “H9c2 CC^50” value is reported as 50 µM.
In the case of `N=C(N)c1ccc(OCc2ccc(-c3ccc(C(=N)N)cc3)cc2)cc1` [drawing 852], the “H9c2 CC^50” value is reported as 50 µM.
`N=C(N)c1ccc(OCc2cccc(COc3ccc(C(=N)N)cc3)c2)cc1` [drawing 853] was tested, and the “H9c2 CC^50” value was 50 µM.
For `N=C(N)c1ccc(OCCCCCCCCOc2ccc(C(=N)N)cc2)cc1` [drawing 855], the “H9c2 CC^50” value was <5 µM.
In the case of `Cc1cc(-c2nc3cc(C(=N)N)ccc3n2C)sc1-c1ccc(OCCCCOc2ccc(C(=N)N)cc2)cc1` [drawing 856], the “H9c2 CC^50” value is reported as 50 µM.
In the case of `N=C(N)c1ccc(OCc2cccc(COc3ccc(C(=N)N)cc3)n2)cc1` [drawing 857], the “H9c2 CC^50” value is reported as 50 µM.
`N=C(N)c1ccc(OCOc2ccc(C(=N)N)cc2)cc1` [drawing 858] was tested, and the “H9c2 CC^50” value was 50 µM.
For `N=C(N)c1ccc(OCc2cccc(COc3ccc(C(=N)N)cc3)c2F)cc1` [drawing 859], the “H9c2 CC^50” value was 50 µM.
With `Cn1c(CCc2nc3cc(C(=N)N)ccc3n2C)nc2cc(C(=N)N)ccc21` [drawing 860] the “H9c2 CC^50” value was 50 µM.
For `N=C(N)c1ccc(OCCCCCCOc2ccc(C(=N)N)cc2)cc1` [drawing 862], the “H9c2 CC^50” value was <5 µM.
For `c1cc(COc2ccc(C3=NCCN3)cc2)cc(COc2ccc(C3=NCCN3)cc2)c1` [drawing 865], the “H9c2 CC^50” value was <12 µM.
In the case of `Fc1c(COc2ccc(C3=NCCN3)cc2)cccc1COc1ccc(C2=NCCN2)cc1` [drawing 866], the “H9c2 CC^50” value is reported as 25 µM.
With `COc1cc(C2=NCCN2)ccc1OCc1cccc(COc2ccc(C3=NCCN3)cc2OC)c1F` [drawing 868] the “H9c2 CC^50” value was 50 µM.
In the case of `COc1cc(C(=N)N)ccc1OCc1cccc(COc2ccc(C(=N)N)cc2OC)c1F` [drawing 872], the “H9c2 CC^50” value is reported as 12.5 µM.
`CC(C)(C)c1cc(COc2ccc(C(=N)N)cc2)cc(COc2ccc(C(=N)N)cc2)c1` [drawing 873] was tested, and the “H9c2 CC^50” value was 25 µM.
For `CC(C)(C)c1cc(COc2ccc(C(=N)N)cc2F)cc(COc2ccc(C(=N)N)cc2F)c1` [drawing 883], the “H9c2 CC^50” value was 25 µM.
In the case of `CCCCc1cc(OCc2ccc(C(=N)N)cc2)cc(OCc2ccc(C(=N)N)cc2)c1` [drawing 887], the “H9c2 CC^50” value is reported as 25 µM.
For `N=C(N)c1ccc(COc2cc(OCc3ccc(C(=N)N)cc3)cc(C(F)(F)F)c2)cc1` [drawing 888], the “H9c2 CC^50” value was 50 µM.
